Results taken from ChEMBL document CHEMBL1795257, “Synthesis of new opioid derivatives with a propellane skeleton and their pharmacology: part 1” (Bioorg Med Chem Lett, 2011).
Calls of active or inactive are those of the source. No cut-off for these calls is given here.

Legend:
Cavia porcellus = species: Cavia porcellus; experiment: Selectivity ratio of Ki for delta opioid receptor in guinea pig forebrain homogenate to Ki for kappa opioid receptor in guinea pig cerebellum homogenate; format: tissue-based
[1] = molecular target: Kappa-type opioid receptor (Cavia porcellus, UniProt P41144); experiment: Displacement of [3H]U69593 from kappa opioid receptor in guinea pig cerebellum homogenate by scintillation counting; format: tissue-based
Kappa-type opioid receptor, sequence (P41144 whole entry): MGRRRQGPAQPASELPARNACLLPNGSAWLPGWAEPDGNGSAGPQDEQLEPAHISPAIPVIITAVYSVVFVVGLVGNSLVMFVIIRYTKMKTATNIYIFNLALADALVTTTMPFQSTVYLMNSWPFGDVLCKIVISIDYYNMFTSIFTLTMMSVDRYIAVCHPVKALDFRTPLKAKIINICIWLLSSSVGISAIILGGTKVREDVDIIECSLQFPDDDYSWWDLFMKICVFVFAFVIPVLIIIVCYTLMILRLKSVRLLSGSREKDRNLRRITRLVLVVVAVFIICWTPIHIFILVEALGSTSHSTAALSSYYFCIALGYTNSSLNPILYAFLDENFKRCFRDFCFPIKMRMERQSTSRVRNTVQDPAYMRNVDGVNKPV

Mu-type opioid receptor = Mu-type opioid receptor (Cavia porcellus, UniProt P97266); experiment: Displacement of [3H]DAMGO from mu opioid receptor in guinea pig forebrain homogenate by scintillation counting; format: tissue-based, Brain
Mu-type opioid receptor, sequence (P97266 whole entry): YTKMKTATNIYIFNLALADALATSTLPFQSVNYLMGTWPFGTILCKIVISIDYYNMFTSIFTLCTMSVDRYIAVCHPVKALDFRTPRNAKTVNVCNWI

[2] = Displacement of [3H]NTI from delta opioid receptor in guinea pig forebrain homogenate by scintillation counting; format: tissue-based, Cavia porcellus, Brain
Mus musculus [3] = experiment: Antinociceptive activity in sc dosed mouse assessed as inhibition of acetic acid-induced writhing in presence of mu opioid […] naloxone; format: functional, organism-based
Mus musculus [4] = experiment: Antinociceptive activity in sc dosed mouse assessed as inhibition of acetic acid-induced writhing in presence of kappa opioid antagonist nor-BNI; format: functional, organism-based
Mus musculus [5] = experiment: Antinociceptive activity in sc dosed mouse assessed as inhibition of acetic acid-induced writhing; format: functional

SMILES: O=C1CC[C@@]2(O)[C@H]3Cc4ccc(O)c5c4[C@@]2(CCN3CC2CC2)[C@H]1O5
- Ratio Ki (Cavia porcellus): 56

SMILES: CC(C)=CCN1CC[C@@]2(C)c3cc(O)ccc3C[C@@H]1[C@@H]2C
- Ki [1]: 3.6 nM
- Ki (Mu-type opioid receptor): 4.6 nM
- Ki [2]: 23.1 nM
- Ratio Ki (Cavia porcellus): 6.4

SMILES: O=C1CCC23Cc4ccc(O)cc4C2(CCN(CC2(O)CC2)C3)C1 (centres undefined)
- Ki [1]: 21.7 nM
- Ki (Mu-type opioid receptor): 77.7 nM
- Ki [2]: 500 nM
- Ratio Ki (Cavia porcellus): 23

SMILES: CN1CC[C@]23c4c5ccc(O)c4O[C@H]2C(=O)CC[C@@]3(O)[C@H]1C5 [OXYMORPHONE]
- Ki [2]: 42.7 nM

SMILES: O=C1CC23CCN(CC4CC4)C(Cc4ccc(O)cc42)C32CCC1O2 (centres undefined)
- Ratio Ki (Cavia porcellus): 30

SMILES: CCC12CCN(CC3(O)CC3)[C@H](Cc3ccc(O)cc31)C2(C)C
- Ki (Mu-type opioid receptor): 0.2 nM
- Ki [2]: 0.9 nM

SMILES: Oc1ccc2c3c1OC1C4(O)CC[C@@]5(OC4)[C@@H](C2)N(CC2CC2)CC[C@]315 (some centres undefined)
- Ki [1]: 0.34 nM
- Ki (Mu-type opioid receptor): 0.16 nM
- Ki [2]: 10.3 nM
- Ratio Ki (Cavia porcellus): 30

SMILES: O=C1CCC23Cc4ccc(O)cc4C2(CCN(CC2CC2)C3)C1 (centres undefined)
- Ki [1]: 17.4 nM
- Ki (Mu-type opioid receptor): 58.2 nM
- Activity (Mus musculus [3]): inactive
- Ki [2]: 448 nM
- Activity (Mus musculus [4]): inactive
- Ratio Ki (Cavia porcellus): 26
- ED50 (Mus musculus [5]): 0.86 mg/kg

SMILES: OCC12CC[C@@]3(O1)[C@H]1Cc4ccc(O)cc4[C@@]3(CCN1CC1CC1)C2
- Ratio Ki (Cavia porcellus): 35

SMILES: CN1CC[C@]23c4c5ccc(O)c4O[C@H]2[C@@H](O)C=C[C@H]3[C@H]1C5
- Activity (Mus musculus [5]): Active

SMILES: O=C1CC[C@@]2(O)[C@H]3Cc4ccc(O)cc4[C@@]2(CCN3CC2CC2)C1
- Ki [1]: 0.038 nM
- Ki (Mu-type opioid receptor): 0.14 nM
- Ki [2]: 1.82 nM
- Ratio Ki (Cavia porcellus): 48

SMILES: CN1CCC23CC(=O)CCC2(Cc2ccc(O)cc23)C1 (centres undefined)
- Ki [1]: 255 nM
- Ki (Mu-type opioid receptor): 3.6 nM
- Ki [2]: 441 nM
- Ratio Ki (Cavia porcellus): 1.7
